One data set has as its system neuropathic pain. The following applies: animal models; cited from earlier work.
Data set [1] deals with Toll-like receptor 4 (TLR4) (Homo sapiens, UniProt O00206+Q9Y6Y9). The settings on record: cited from earlier work.
In another data set the test system is opioid receptors. The settings on record: cited from earlier work.
A further data set concerns neuropathic back pain. Description: Naltrexone and clonidine alone and in combination in a human subject: pain treatment effect, weight to weight synergy. The format is in vivo. The settings on record: one hour post-dose, naltrexone 4.5 mg alone, clonidine 0.3 mg alone, combinations with naltrexone 2.25 mg. The protocol:
(§1) Naltrexone and clonidine were evaluated alone and in combination on a human subject with the purpose of finding whether or not a combination of the two compounds offers synergistic advantage. Two aspects were evaluated for synergy: one aspect was pain treatment effect comparing the amounts used weight to weight, and the other aspect was an assessment of synergy of side effects.
(§2) The components of the combination were administered to a subject in the following manner: naltrexone 4.5 mg was given in the morning. The clonidine dose was divided into two doses, a dose of 0.1 mg in the morning and a dose of 0.2 mg at bedtime. […] The pain treatment effect of naltrexone and clonidine was evaluated after one hour post-dose.
To determine synergy, the amounts of naltrexone and clonidine administered alone were compared to the combination combined amounts.

A further data set has as its system trigeminal neuralgia. Description: Case study trigeminal neuralgia, open label, pain intensity scores and percent relief (baseline days 1-6, study drug days 7-30). The format is in vivo, human. The following applies: from pain level 9. From the text:
Trigeminal neuralgia, also known as suicide disease, is a neuropathic disorder characterized by episodes of intense pain in the face, originating from the trigeminal nerve. It has been described as among the most painful conditions known to mankind. This case study is of a person with a three month history of trigeminal neuralgia. […] The pain involved the right check, upper jaw and the upper front teeth. The pain was constant and described as burning, stinging and aching. It was aggravated by eating, brushing teeth, flossing, chewing and talking. The subject's pain level on average was 5, but it would peak to 9. Ibuprofen brought the pain level from 9 to 7 for two hours, vicoden brought their pain level from 9 to 5, but relief lasted only three to four hours. The subject entered open label study for 3 weeks. […].

The nature of data set [2]: Naltrexone and clonidine alone and in combination in a human subject: side effects over 24 hours. The settings on record: naltrexone 4.5 mg alone, clonidine 0.3 mg alone, combinations with naltrexone 2.25 mg. The protocol: as §1, §2
The conditions of data set [3]: cited from earlier work.
For data set [4] the following is noted: full dose; cited from earlier work.
The conditions of data set [5]: 0.5 mg, 42 IBS patients; cited from earlier work.
In the next data set the test system is leg pain. Nature of the data set: Case study leg pain caused by L-5 radiculopathy. The format is in vivo, human.

This is an account of results in patent US20130310412A1, “Combinations of an Opioid/TLR4 Antagonist and a Direct-Acting Alpha-2 Adrenergic Agonist for Use in the Treatment of Pain” (priority 2010, published 2013).

Where two headings read alike, the source gives them in different places.

Chain of Toll-like receptor 4 (TLR4) (O00206 24-839, species assumed): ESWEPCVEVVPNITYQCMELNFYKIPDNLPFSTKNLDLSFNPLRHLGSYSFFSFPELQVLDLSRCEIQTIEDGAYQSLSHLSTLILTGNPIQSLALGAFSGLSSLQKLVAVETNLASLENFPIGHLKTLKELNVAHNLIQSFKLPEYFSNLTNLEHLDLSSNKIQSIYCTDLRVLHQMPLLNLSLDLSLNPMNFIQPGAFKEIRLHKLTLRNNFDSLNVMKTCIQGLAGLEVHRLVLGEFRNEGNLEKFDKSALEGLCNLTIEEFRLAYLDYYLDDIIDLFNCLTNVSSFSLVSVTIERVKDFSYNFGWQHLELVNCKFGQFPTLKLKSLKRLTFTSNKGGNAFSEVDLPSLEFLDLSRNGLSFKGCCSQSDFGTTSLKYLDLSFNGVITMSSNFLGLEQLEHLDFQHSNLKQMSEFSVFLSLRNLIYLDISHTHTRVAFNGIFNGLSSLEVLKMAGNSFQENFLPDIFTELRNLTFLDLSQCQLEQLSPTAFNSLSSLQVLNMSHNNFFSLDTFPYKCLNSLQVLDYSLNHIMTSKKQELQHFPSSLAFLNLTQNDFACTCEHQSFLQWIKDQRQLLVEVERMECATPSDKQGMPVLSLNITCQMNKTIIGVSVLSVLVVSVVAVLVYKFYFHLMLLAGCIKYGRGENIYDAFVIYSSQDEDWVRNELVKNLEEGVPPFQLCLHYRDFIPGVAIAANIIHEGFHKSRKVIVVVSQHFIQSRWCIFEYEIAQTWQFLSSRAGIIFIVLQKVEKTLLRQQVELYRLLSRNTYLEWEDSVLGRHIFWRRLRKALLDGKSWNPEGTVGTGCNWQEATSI
Chain of Toll-like receptor 4 (TLR4) (Q9Y6Y9 17-160 limits assumed, species assumed): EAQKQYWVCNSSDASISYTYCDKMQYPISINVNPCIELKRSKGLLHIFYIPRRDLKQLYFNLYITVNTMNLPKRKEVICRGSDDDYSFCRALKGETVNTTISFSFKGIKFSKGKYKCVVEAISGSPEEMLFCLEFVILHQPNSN

Regarding `C=CCN1CC[C@]23c4c5ccc(O)c4O[C@H]2C(=O)CC[C@]3(O)[C@H]1C5` [(+)-naloxone], the “treating symptoms of neuropathic pain” value in the data set with neuropathic pain is given as “effective”. The “action at TLR4” value in data set [1] is given as “selective antagonists of TLR4”.

For `O=C1CC[C@]2(O)[C@@H]3Cc4ccc(O)c5c4[C@]2(CCN3CC2CC2)[C@@H]1O5` [(+)-naltrexone], the “affinity for opioid receptors” value with opioid receptors is listed as “lack affinity”. Besides, the “treating symptoms of neuropathic pain” value in the data set on neuropathic pain is given as “effective”. The “action at TLR4” value in data set [1] is “selective antagonists of TLR4”.

Turning to `Clc1cccc(Cl)c1N=C1NCCN1` [Clonidine, clonidine], the “% reversal of pain” value with neuropathic back pain is recorded as 50%.

Turning to `CC(C)Cc1ccc(C(C)C(=O)O)cc1` (centres unmarked) [Ibuprofen], the “pain level with previous medication” value in the data set on trigeminal neuralgia came to 7.

Take `O=C1CC[C@@]2(O)[C@H]3Cc4ccc(O)c5c4[C@@]2(CCN3CC2CC2)[C@H]1O5` [Naltrexone, naltrexone]: the side effects entry in data set [2] is “high incidence of alertness, insomnia and anxiety”. In [3] (2.5 mg daily), the Anxiety frequency is given as 11.9%, the Diarrhea frequency is 6.0% and the Muscle pain frequency is reported as 4.5%. In data set [3] (5.0 mg daily), the Anxiety frequency was 21.7%, the Diarrhea frequency was 13.0% and the Muscle pain frequency is on record as 15.2%. In addition, in data set [3] (24 patients, of those with side effects), the “side effects that were short-lived” value is 32.4%. In [3] (121 patients), the “Abdominal pain, Percentage of Participants” value is reported as 11.6%; the “Anorexia, Percentage of Participants” value is recorded as 8.3%; the “Anxiety, Percentage of Participants” value is 15.7%; the “Diarrhea, Percentage of Participants” value is reported as 8.3%. In [3] (121 patients), the “Dizziness, Percentage of Participants” value is listed as 10.7%; the “Drowsiness, Percentage of Participants” value is listed as 11.6%; the “Headache, Percentage of Participants” value is listed as 11.6%; the “Insomnia, Percentage of Participants” value is 8.3%. For the same compound, in [3] (121 patients), the “Mood change, Percentage of Participants” value is 3.3%; the “Muscle pain, Percentage of Participants” value is listed as 8.3%; the “Nausea, Percentage of Participants” value is listed as 12.4%; the “No side effects, Percentage of Participants” value was 38.8%. Further, in data set [3] (121 patients), the “Terminated Naltrexone because of side effects” value was 16.5%; the “Trouble concentrating, Percentage of Participants” value is given as 1.7%; the “Vivid dreams, Percentage of Participants” value is on record as 5.0%. Moreover, the “Total side effects, Percentage of Participants” value (“Total side effects, Percentage” for short) in [3] (121 patients, listed as LDN) is listed as 61%. The “Total side effects, Percentage” value in [3] (121 patients, listed as Low Dose Naltrexone) is recorded as 61.2%. Also, the “Total side effects, Percentage” value in [3] (121 patients, listed as low dose Naltrexone) is given as 61/2. Further, the “incidence of nervousness, insomnia, and anxiety” value in data set [3] (low dose) is reported as “double digit incidence”. Also, the “incidence of nervousness, insomnia, and anxiety” value in data set [4] is on record as “single-digit incidence”. The “% reversal of pain” value in the data set with neuropathic back pain was found to be 100%. Besides, the side effects entry in data set [5] is listed as “no side effects were reported”. Further, the “action at TLR4” value in [1] is listed as “antagonists for TLR4”.

For `CN1CC[C@]23c4c5ccc(O)c4O[C@H]2[C@@H](O)C=C[C@H]3[C@H]1C5` [morphine], the “action at TLR4” value in data set [1] is “TLR4 agonists”.

For the compound `C=CCN1CC[C@]23c4c5ccc(O)c4O[C@H]2C(=O)CC[C@@]3(O)[C@H]1C5` [naloxone], the “action at TLR4” value in data set [1] is listed as “antagonists for TLR4”.

With Etanercept, in the data set on leg pain (three perispinal injections), the “duration of relief from previous treatment” value is on record as “two” and the “relief from previous treatment” value was 10%.

Consider botulinum toxin, for which, in the data set with leg pain (in vivo), the “duration of relief from previous treatment” value was “two” and the “relief from previous treatment” value was determined as 10%.
